Measured values taken from US20230227437A1, “IMMUNOMODULATOR” (priority 2020, published 2023).

Columns and labels:
hIL-17A/RA = target: T1, hIL-17A/RA (Homo sapiens, UniProt Q16552); assay: Reversibility of binding by jump dilution ELISA (hIL-17A/hIL-17RA)
T1 construct: biotin label (inferred from streptavidin-HRP detection)
T1 sequence (Q16552 24-155): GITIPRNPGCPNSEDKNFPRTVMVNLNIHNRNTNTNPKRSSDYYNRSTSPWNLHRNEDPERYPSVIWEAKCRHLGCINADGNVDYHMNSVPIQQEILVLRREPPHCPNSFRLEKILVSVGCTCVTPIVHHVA
Experimental: The reversibility of the binding of the compounds in Examples to hIL-17A and the binding time of the compound-protein complex were qualitatively and quantitatively analyzed by jump dilution assay. The positive compound was the compound of Example 32 in WO2020/127685 A1. 7 nM hIL-17RA were inoculated to a 96-well plate (100 μL for per well), and incubated at 37° C. for 30 min. A blank group was 100 μL of coating buffer solution. After […] incubation at 4° C., the 96-well plate was washed with PBST (0.05% Tween-20) 4 times, 200 μL for per well each time. The 96-well plate was added with 200 μL 3% BSA (PBST diluted) and closed on a shaker at 37° C. for 30 min. […] The configured hIL7A was mixed with an equal volume of compound in a 200 ul centrifuge tube to obtain a protein-compound mixture. The protein-compound mixture was subjected to pre-incubation at room temperature for 15 min. The protein-compound mixture, positive control group and negative control group were diluted 200×. After closing, the 96-well plate was washed 4 times, and added with dilution 100 μL for per well to incubate at 25° C. for 28, 24, 5, 2 and 0 h. After washing the plate 4 times, 100 μL of Streptavidin-HRP coupled antibody diluted with 1% BSA was added and then incubated for 30 min on a shaker at 25° C. After washing the plate 4 times, 100 μL of TMB substrate solution were added, and incubated away from light for 5-15 min at 25° C. (depending on the color of the reaction). After addition of 20% HCl, an absorbance was measure by a microplate reader at 450 nm.

hIL-17A protein = target: T2, hIL-17A protein (Homo sapiens, UniProt Q16552); assay: Binding to hIL-17A protein through surface plasmon resonance (SPR, Biacore 8K)
T2 sequence (Q16552 24-155): T1 sequence (Q16552 24-155)
Experimental: The binding of the compounds provided herein to the hIL-17A protein was tested using SPR, and analyzed using a Biacore 8K system. A positive compound was the compound of Example 32 in WO2020/127685A1.

human IL-17A (hIL-17A) = target: T3, human IL-17A (hIL-17A) (Homo sapiens, UniProt Q16552); assay: IL-17A enzyme-linked immunosorbent assay (competitive ELISA, receptor-ligand binding)
T3 construct: purchased Sino Biological Inc. 12047-H07B
T3 sequence (Q16552 24-155): T1 sequence (Q16552 24-155)
Experimental: The inhibition of receptor-ligand binding by human IL-17A (hIL-17A) inhibitors was detected by competitive ELISA. A 96-well plate was inoculated 0.2 μg/ml IL-17 (Sino Biological Inc. Cat #12047-H07B) for incubation at 37° C. for 30 min, 100 μL for per well. The 96-well plate was washed four times with phosphate buffered saline (PBS) containing Tween-20 (PBST, 0.05% Tween-20), 200 μL for per well each time. 200 μL of 5% skim milk were added into the 96-well plate for incubation on a shaker at 25° C. for 30 min. The 96-well plate was washed four times with PBST (0.05% Tween-20), and added with 89 μL of PBST and 1 μL of a compound to be measured (100×), in which a concentration the compound to be measured (100×) was 0.003 μM-30 μM. The mixture was mixed evenly and incubated at 25° C. for 10 min. The mixture was added with 10 μL of 16 nM IL-17R, followed by incubation at 25° C. for 30 min. After washing the 96-well plate 4 times, 100 μL of anti-Fc tag horseradish peroxidase (HRP) coupled antibody were added for incubation on a shaker at 25° C. for 30 min. After washing the 96-well plate 4 times, 100 μL of 3,3′,5,5′-tetramethylbenzidine (TMB) substrate solution were added to the 96-well plate for incubation away from light at 25° C. After addition of 20% HCl, an absorbance was measure by a microplate reader at 450 nm.
The compounds prepared according to the above method were assayed for human IL-17A inhibitory activity.

hIL-17A = target: T4, hIL-17A (Homo sapiens, UniProt Q16552); assay: Inhibition of hIL-17A-induced chemokine GROα/CXCL1 production in HT-29 cell; assay type: cell-based
T4 construct: purchased R&D 317-ILB
T4 sequence (Q16552 20-155 limits assumed): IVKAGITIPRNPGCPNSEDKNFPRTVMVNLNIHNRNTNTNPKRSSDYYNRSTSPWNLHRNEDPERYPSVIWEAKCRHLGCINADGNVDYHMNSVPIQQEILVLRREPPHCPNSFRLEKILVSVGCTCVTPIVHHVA
Experimental: Human colorectal adenocarcinoma cell HT-29 was inoculated to a 96-well plate (5×10^4 for per well), and incubated at 37° C. on an incubator overnight. A mixture of 30 ng/mL hIL-17A protein (R&D, #317-ILB) with gradient concentrations of IL-17A small molecule inhibitors or with 0.3 μg/mL positive control IL-17A antibody (R&D, #AF-317-NA) was incubated for 1 h at 37° C., and added into the 96-well plate to incubated with HT-29 at 37° C. for 48 h. A level of GROα in a cell culture supernatant was then detected using an ELISA kit for GROα (Cisbio, #62HCXC1peg).
Inhibitory effect of the compound prepared in Examples on hIL-17A-induced chemokine GROα/CXCL1 production in HT-29 cell was tested according to the methods of Experimental Examples 1 and 2. […] “-” indicated not tested. According to the results, the compounds provided herein have good human IL-17A inhibitory activity and can be effectively used in the treatment of diseases associated with abnormal hIL-17A activity.

[1] = compared with the positive compound

Compound | IC50 (human IL-17A (hIL-17A)) | IC50 (hIL-17A) | also measured
Cc1n[nH]c(C)c1-c1ncc(NC(=O)[C@@H](NC(=O)c2ccnn2C(C)C)C2c3cc(F)c(F)cc3OCC23CC3)cc1F (stereo partly shown) [Compound 47] | 88 nM | 172 nM | maintenance of binding to and inhibition of hIL-17A protein (jump dilution, in words) (hIL-17A/RA; [1]): able to maintain binding to and inhibit the activity of hIL-17A protein for a long time; 50% enzyme activity retention time, Value on hIL-17A/RA (10X cpds) (hIL-17A/RA; jump dilution, 10X cpds): >28 h; Kd (hIL-17A protein): 0.00169 nM; ka (hIL-17A protein; SPR): 20400 M⁻¹ s⁻¹; kd (hIL-17A protein; SPR): 3.44e-08 s⁻¹; binding to hIL-17A (SPR, in words) (hIL-17A protein; [1]): strong binding to hIL-17A and were much stronger than the positive compound
Cc1n[nH]c(C)c1-c1ccc(NC(=O)[C@@H](NC(=O)c2nonc2C2CC2)C2c3ccc(F)cc3OCC23CC3)cn1 (stereo partly shown) [Compound 95] | 94 nM | 457 nM | –
Cc1n[nH]c(C)c1-c1ccc(NC(=O)[C@@H](NC(=O)c2nonc2C(C)C)C2c3ccc(F)cc3OCC23CC3)cc1 (stereo partly shown) [Compound 28] | 110 nM | 83 nM | –
COCc1[nH]nc(C)c1-c1ccc(NC(=O)[C@@H](NC(=O)c2nonc2C)C2c3ccc(F)c(F)c3OCC23CC3)cc1 (stereo partly shown) [Compound 85] | 133 nM | 1220 nM | –
Cc1n[nH]c(C)c1-c1ccc(NC(=O)[C@@H](NC(=O)c2nonc2C(C)C)C2c3cc(F)c(F)cc3OCC23CC3)cc1 (stereo partly shown) [Compound 45] | 125 nM | 50 nM | –
Cc1nonc1C(=O)N[C@H](C(=O)Nc1ccc(-c2c(C)n[nH]c2C)cc1)C1c2cc(F)c(F)cc2OCC12CC2 (stereo partly shown) [Compound 42] | 40 nM | 70 nM | –
Cc1n[nH]c(C)c1-c1ccc(NC(=O)[C@@H](NC(=O)c2nonc2C(C)C)C2c3ccc(F)c(F)c3OCC23CC3)cn1 (stereo partly shown) [Compound 63] | 156 nM | 605 nM | –
Cc1n[nH]c(C)c1-c1ccc(NC(=O)[C@@H](NC(=O)c2nocc2C(C)C)C2c3ccc(F)cc3OCC23CC3)cc1 (stereo partly shown) [Compound 35] | 311 nM | 85 nM | –
Cc1n[nH]c(C)c1-c1ncc(NC(=O)[C@@H](NC(=O)c2conc2C2CC2)C2c3ccc(F)cc3OCC23CC3)cc1F (stereo partly shown) [Compound 100] | 189 nM | 563 nM | –
Cc1n[nH]c(C)c1-c1ccc(NC(=O)[C@@H](NC(=O)c2nonc2C(C)C)C2c3cc(F)cc(F)c3OCC23CC3)cn1 (stereo partly shown) [Compound 73] | 294 nM | 795 nM | –
Cc1nonc1C(=O)N[C@H](C(=O)Nc1ccc(-c2c(C)n[nH]c2C)nc1)C1c2cc(F)ccc2OCC12CC2 (stereo partly shown) [Compound 19] | 190 nM | 2050 nM | –
Cc1n[nH]c(C)c1-c1ccc(NC(=O)[C@@H](NC(=O)c2ccnn2C(C)C)C2c3cc(F)cc(F)c3OCC23CC3)cc1 (stereo partly shown) [Compound 70] | 201 nM | 112 nM | –
Cc1n[nH]c(C)c1-c1ccc(NC(=O)[C@@H](NC(=O)c2ccnn2C)C2c3cc(F)ccc3OCC23CC3)cn1 (stereo partly shown) [Compound 22] | 85 nM | 1020 nM | –
Cc1n[nH]c(C)c1-c1ccc(NC(=O)[C@@H](NC(=O)c2ccnn2C)C2c3ccc(F)cc3CC23CC3)cc1 (stereo partly shown) [Compound 16] | 43 nM | 55 nM | –
Cc1n[nH]c(C)c1-c1ncc(NC(=O)[C@@H](NC(=O)c2nonc2C2CC2)C2c3ccc(F)cc3OCC23CC3)cc1F (stereo partly shown) [Compound 91] | 67 nM | 1080 nM | –
Cc1n[nH]c(C)c1-c1ccc(NC(=O)[C@@H](NC(=O)C2(F)CC2)C2c3cc(F)c(F)cc3OCC23CC3)cc1 (stereo partly shown) [Compound 55] | 65 nM | 228 nM | –
Cc1n[nH]c(C)c1-c1ncc(NC(=O)[C@@H](NC(=O)c2nonc2C2CC2)C2c3ccc(F)c(F)c3OCC23CC3)cc1F (stereo partly shown) [Compound 86] | 179 nM | 718 nM | –
Cc1nonc1C(=O)N[C@H](C(=O)Nc1ccc(-c2c(C)n[nH]c2C)cc1)C1c2ccc(F)c(F)c2OCC12CC2 (stereo partly shown) [Compound 57] | 112 nM | 346 nM | –
Cc1n[nH]c(C)c1-c1ccc(NC(=O)[C@@H](NC(=O)c2nonc2C2CC2)C2c3ccc(F)cc3OCC23CC3)cc1 (stereo partly shown) [Compound 94] | 572 nM | 695 nM | –
Cc1nonc1C(=O)N[C@H](C(=O)Nc1ccc(-c2c(C)n[nH]c2C)cc1)C1c2ccc(F)cc2CC12CC2 (stereo partly shown) [Compound 15] | 48 nM | 71 nM | –
